Source: patent publication US8716473B2, “Substituted benzotriazines and quinoxalines as inhibitors of P7OS6 kinase” (Sentinel Oncology Limited, priority 2009, dated 2014)
Where a name gives a salt, the structure may show the parent alone.

What was measured:
p70S6K (h) = p70S6K (h) (Homo sapiens, UniProt P23443); assay: Determination of p70S6 inhibitory activity (radiometric 33P-ATP filter assay); type: biochemical; conditions: 40 min at room temperature, read-out: IC50 against P70S6 kinase
Method: The ability of compounds of the invention to inhibit P70S6 kinase was determined using the protocol below.
• 20 mM MOPS, 1 mM EDTA, 0.01% Brij-35, 5% Glycerol, 0.1% b-mercaptoethanol, 1 mg/mL BSA Method: • p70S6K (h)
In a final reaction volume of 25 μL, p70S6K (h) (5-10 mU) is incubated with 8 mM MOPS pH 7.0, 0.2 mM EDTA, 100 μM KKRNRTLTV, 10 mM Mg acetate and [γ-33P-ATP] (specific activity approx. 500 cpm/pmol, concentration as required). The reaction is initiated by the addition of the MgATP mix. After incubation for 40 minutes at room temperature, the reaction is stopped by the addition of 5 μL of a 3% phosphoric acid solution. 10 μL of the reaction mixture is then spotted onto a P30 filtermat and washed three times for 5 minutes in 75 mM phosphoric acid and once in methanol prior to drying and scintillation counting.

[1] = tested on: phosphorylation of S6 Ser235/236 in MCF-7 cells; assay: Inhibition of P70S6K activity in whole cells: phospho-S6 ELISA in MCF-7 cells; type: cell-based; conditions: Homo sapiens, MCF7, 2 h incubation, 1% FBS
Method: The following assay provides IC50 values for inhibition of P70S6K activity in a whole cell assay by determining effects on the phosphorylation of S6^Ser235/236 in MCF-7 cells by ELISA.
The following protocol was used: • 1) MCF-7 cells were seeded in 96-well plates at a density of 7×10^3 cells per well and allowed to adhere for 6 h in media containing 10% FBS. • 2) The full serum media was replaced and cells incubated overnight in media containing 1% FBS, prior to addition of test compounds. • 3) Test compounds were prepared from 10 mM or 5 mM (BEZ-235) DMSO stocks to give final concentration ranges as indicated on graphs. DMSO was constant at a final concentration of 1%. • 4) Test compounds were incubated with cells in duplicate for 2 h at 37° C./5% CO2 in a humidified atmosphere. • 5) The media was removed and cells were lysed by freeze-thawing in cell lysis buffer. • 6) Detection of phosphorylated S6Ser235/236 was then carried out using a PathScan ELISA kit (Cell Signaling Technology #7205). • 7) Lysates were diluted 1:1 with sample diluent before being applied to wells coated with an antibody against phosphorylated-S6 protein. • 8) The ELISA was then performed as stated in the manufacturers' instructions. • 9) The raw data were normalised to control values and analysed using a 4-parameter logistic equation in GraphPad Prism.

MCF-7 cells = assay: MCF-7 proliferation assay (Alamar blue); type: cell-based; conditions: Homo sapiens, MCF7, 72 h incubation, read-out: IC50 for inhibition of cell growth
Method: The following assay was used to determine the ability of test compounds to inhibit cell growth.
The following protocol was used: • 1) MCF-7 cells were seeded in 96-well plates at 5000 cells per well and allowed to adhere overnight prior to addition of compound or vehicle control. • 2) Test compounds were prepared from 10 mM DMSO stocks to give a final concentration range of 100 μM, 30 μM, 10 μM, 3 μM, 1 μM, 0.3 μM, 0.1 μM, 0.03 μM, 0.01 μM and vehicle control. The DMSO content was constant at 1%. • 3) Test compounds were incubated with the cells for 72 h at 37° C. 5% CO2 in a humidified atmosphere. • 4) Alamar blue 10% (v/v) was then added and incubated for a further 6 h, and fluorescent product detected using the BMG FLUOstar plate reader. • 5) Data were analysed using a 4-parameter logistic equation in Graph Pad Prism.

Chain of p70S6K (h) (P23443 whole entry): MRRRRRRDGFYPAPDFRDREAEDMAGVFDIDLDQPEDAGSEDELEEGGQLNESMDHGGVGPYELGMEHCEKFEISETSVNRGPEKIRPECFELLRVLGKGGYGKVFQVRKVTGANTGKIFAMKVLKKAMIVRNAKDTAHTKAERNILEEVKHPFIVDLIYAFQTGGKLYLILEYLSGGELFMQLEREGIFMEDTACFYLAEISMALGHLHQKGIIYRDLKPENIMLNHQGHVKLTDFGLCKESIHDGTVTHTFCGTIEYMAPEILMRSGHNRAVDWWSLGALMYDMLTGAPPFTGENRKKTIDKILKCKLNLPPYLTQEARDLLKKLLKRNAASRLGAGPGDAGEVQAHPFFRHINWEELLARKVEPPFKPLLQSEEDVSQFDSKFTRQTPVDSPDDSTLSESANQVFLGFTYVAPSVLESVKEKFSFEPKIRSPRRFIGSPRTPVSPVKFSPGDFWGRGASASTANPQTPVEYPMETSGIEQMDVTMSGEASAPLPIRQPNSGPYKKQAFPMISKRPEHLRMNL

| IC50 (p70S6K (h)) [µM] | IC50 [1] [µM] | IC50 (MCF-7 cells) [µM] | Compound |
| --- | --- | --- | --- |
| < 0.1 | < 5 | < 10 | c1ccc(CNc2cnc3cc(-c4cn[nH]c4)ccc3n2)cc1 [Example 1, Benzyl-[6-(1H-pyrazol-4-yl)-quinoxalin-2-yl]-amine] |
| < 0.1 | < 5 | < 20 | CN(Cc1ccccc1)c1cnc2cc(-c3cn[nH]c3)ccc2n1 [Example 2, Benzyl-methyl-[6-(1H-pyrazol-4-yl)-quinoxalin-2-yl]-amine hydrochloride] |
| < 0.1 | < 5 | < 20 | OCCN(Cc1ccccc1)c1cnc2cc(-c3cn[nH]c3)ccc2n1 [Example 3, 2-{Benzyl-[6-(1H-pyrazol-4-yl)-quinoxalin-2-yl]-amino}-ethanol] |
| < 1 | < 5 | < 20 | CN1CCN(c2cccc(CNc3cnc4cc(-c5cn[nH]c5)ccc4n3)c2)CC1 [Example 6, [3-(4-Methyl-piperazin-1-yl)-benzyl]-[6-(1H-pyrazol-4-yl)-quinoxalin-2-yl]-amine hydrochloride] |
| < 5 | < 5 | < 20 | c1cc(CNc2cnc3cc(-c4cn[nH]c4)ccc3n2)cc(N2CCOCC2)c1 [Example 7, (3-Morpholin-4-yl-benzyl)-[6-(1H-pyrazol-4-yl)-quinoxalin-2-yl]-amine hydrochloride] |
| < 0.1 | < 5 | < 20 | Clc1ccc(CNc2cnc3cc(-c4cn[nH]c4)ccc3n2)cc1 [Example 8, (4-Chloro-benzyl)-[6-(1H-pyrazol-4-yl)-quinoxalin-2-yl]-amine] |
| < 0.1 | < 1 | < 20 | Clc1cccc(CNc2cnc3cc(-c4cn[nH]c4)ccc3n2)c1 [Example 9, (3-Chloro-benzyl)-[6-(1H-pyrazol-4-yl)-quinoxalin-2-yl]-amine] |
| < 0.1 | < 5 | < 10 | Fc1ccc(CNc2cnc3cc(-c4cn[nH]c4)ccc3n2)cc1 [Example 11, (4-Fluoro-benzyl)-[6-(1H-pyrazol-4-yl)-quinoxalin-2-yl]-amine hydrochloride] |
| < 0.1 | < 5 | < 10 | Fc1cccc(CNc2cnc3cc(-c4cn[nH]c4)ccc3n2)c1 [Example 12, (3-Fluoro-benzyl)-[6-(1H-pyrazol-4-yl)-quinoxalin-2-yl]-amine hydrochloride] |
| < 1 |  | < 20 | Fc1ccccc1CNc1cnc2cc(-c3cn[nH]c3)ccc2n1 [Example 13, (2-Fluoro-benzyl)-[6-(1H-pyrazol-4-yl)-quinoxalin-2-yl]-amine hydrochloride] |
| < 1 | < 5 | < 10 | COc1ccc(CNc2cnc3cc(-c4cn[nH]c4)ccc3n2)cc1 [Example 17, (4-Methoxy-benzyl)-[6-(1H-pyrazol-4-yl)-quinoxalin-2-yl]-amine] |
| < 0.1 | < 1 | < 10 | COc1cccc(CNc2cnc3cc(-c4cn[nH]c4)ccc3n2)c1 [Example 18, (3-Methoxy-benzyl)-[6-(1H-pyrazol-4-yl)-quinoxalin-2-yl]-amine] |
| < 0.1 | < 5 | < 50 | CN(Cc1ccc(F)cc1)c1cnc2cc(-c3cn[nH]c3)ccc2n1 [Example 21, (4-Fluoro-benzyl)-methyl-[6-(1H-pyrazol-4-yl)-quinoxalin-2-yl]-amine] |
| < 0.1 | < 5 | < 20 | c1ccc(CCNc2cnc3cc(-c4cn[nH]c4)ccc3n2)cc1 [Example 25, Phenethyl-[6-(1H-pyrazol-4-yl)-quinoxalin-2-yl]-amine hydrochloride] |
| < 0.1 |  | < 50 | CCN(Cc1ccccc1)c1cnc2cc(-c3cn[nH]c3)ccc2n1 [Example 26, Benzyl-ethyl-[6-(1H-pyrazol-4-yl)-quinoxalin-2-yl]-amine] |
| < 0.1 | < 1 | < 50 | COc1cccc(CN(C)c2cnc3cc(-c4cn[nH]c4)ccc3n2)c1 [Example 27, (3-Methoxy-benzyl)-methyl-[6-(1H-pyrazol-4-yl)-quinoxalin-2-yl]-amine] |
| < 0.1 | < 1 | < 10 | CN(Cc1cccc(F)c1)c1cnc2cc(-c3cn[nH]c3)ccc2n1 [Example 28, (3-Fluoro-benzyl)-methyl-[6-(1H-pyrazol-4-yl)-quinoxalin-2-yl]-amine] |
| < 5 |  | < 20 | CN(C)CCOc1cccc(CNc2cnc3cc(-c4cn[nH]c4)ccc3n2)c1 [Example 31, [3-(2-Dimethylamino-ethoxy)-benzyl]-[6-(1H-pyrazol-4-yl)-quinoxalin-2-yl]-amine hydrochloride] |
| < 0.1 | < 5 | < 50 | Fc1ccc(CNc2cnc3cc(-c4cn[nH]c4)ccc3n2)cc1F [Example 32, (3,4-Difluoro-benzyl)-[6-(1H-pyrazol-4-yl)-quinoxalin-2-yl]-amine] |
| < 0.1 | < 1 | < 20 | C[C@@H](Nc1cnc2cc(-c3cn[nH]c3)ccc2n1)c1ccccc1 [Example 33, ((R)-1-Phenyl-ethyl)-[6-(1H-pyrazol-4-yl)-quinoxalin-2-yl]-amine] |
| < 0.1 |  | < 10 | c1cc(CNc2cnc3cc(-c4cn[nH]c4)ccc3n2)cs1 [Example 38, [6-(1H-Pyrazol-4-yl)-quinoxalin-2-yl]-thiophen-3-ylmethyl-amine] |
| < 0.1 | < 1 | < 10 | Cc1cccc(CNc2cnc3cc(-c4cn[nH]c4)ccc3n2)c1 [Example 41, (3-Methyl-benzyl)-[6-(1H-pyrazol-4-yl)-quinoxalin-2-yl]-amine] |
| < 0.1 | < 1 | < 10 | COc1cccc([C@@H](C)Nc2cnc3cc(-c4cn[nH]c4)ccc3n2)c1 [Example 50, [(R)-1-(3-Methoxy-phenyl)-ethyl]-[6-(1H-pyrazol-4-yl)-quinoxalin-2-yl]-amine hydrochloride] |
